# Legend:
# [1] = test system: Chrysosporium keratinophilum; experiment: Agar plate disc-diffusion, antifungal activity (inhibition zone); format: cell-based; details: Sabouraud's dextrose agar, 37° C., 72 h
# Experimental: (§1) The agar plate disc-diffusion method was applied. […] The discs were then placed onto the surface of agar plates (nutrient agar for bacteria and Sabouraud's dextrose agar for fungi) seeded with the test organism. Each plate contained 15 mL of the agar medium, previously seeded with 0.2 mL of the broth culture of each organism pregrown for 18 hours. The plates were incubated at 37° C. for 48 h, and 72 h for fungi. The inhibition zones were measured in mm. Discs impregnated with DMSO were used as a control, and its inhibition zone was subtracted from the tested compound actual inhibition zone.
# Aspergillus flavus = experiment: as above; format: cell-based; details: Sabouraud's dextrose agar, 37° C., 72 h
# Experimental: as §1
# Escherichia coli = experiment: Agar plate disc-diffusion, antibacterial activity (inhibition zone); format: cell-based; details: nutrient agar, 37° C., 48 h
# Experimental: as §1
# Staphylococcus aureus = experiment: as above; format: cell-based; details: nutrient agar, 37° C., 48 h
# Experimental: as §1
# Pseudomonas aeruginosa = experiment: as above; format: cell-based; details: nutrient agar, 37° C., 48 h
# Experimental: as §1
# Bacillus cereus = experiment: as above; format: cell-based; details: nutrient agar, 37° C., 48 h
# Experimental: as §1
# [2] = A = concentration of comp. = 10,000 μL
# [3] = B = concentration of comp. = 30,000 μL
# [4] = C = concentration of comp. = 50,000 μL
compound,measurement,setting,value
"O=C(O)c1ccc(-n2c(-c3ccccc3)nc(-c3ccc(Br)cc3)c2-c2ccc(Br)cc2)cc1 [V, 4-(4,5-bis(4-bromophenyl)-2-phenyl-1H-imidazol-1-yl)benzoic acid]",melting point,,284 °C
same,"inhibition zone, Chrysosporium keratinophilum, A",[1]; [2],27 mm
same,"inhibition zone, Chrysosporium keratinophilum, B",[1]; [3],29 mm
same,"inhibition zone, Chrysosporium keratinophilum, C",[1]; [4],48 mm
same,"inhibition zone, Aspergillus flavus, A",Aspergillus flavus; [2],23 mm
same,"inhibition zone, Aspergillus flavus, B",Aspergillus flavus; [3],27 mm
same,"inhibition zone, Aspergillus flavus, C",Aspergillus flavus; [4],33 mm
same,"inhibition zone, Escherichia coli, A",Escherichia coli; [2],28 mm
same,"inhibition zone, Escherichia coli, B",Escherichia coli; [3],35 mm
same,"inhibition zone, Escherichia coli, C",Escherichia coli; [4],50 mm
same,"inhibition zone, Staphylococcus aureus, A",Staphylococcus aureus; [2],18 mm
same,"inhibition zone, Staphylococcus aureus, B",Staphylococcus aureus; [3],21 mm
same,"inhibition zone, Staphylococcus aureus, C",Staphylococcus aureus; [4],31 mm
same,"inhibition zone, Pseudomonas aeruginosa, A",Pseudomonas aeruginosa; [2],25 mm
same,"inhibition zone, Pseudomonas aeruginosa, B",Pseudomonas aeruginosa; [3],28 mm
same,"inhibition zone, Pseudomonas aeruginosa, C",Pseudomonas aeruginosa; [4],44 mm
same,"inhibition zone, Bacillus Cereus, A",Bacillus cereus; [2],24 mm
same,"inhibition zone, Bacillus Cereus, B",Bacillus cereus; [3],27 mm
same,"inhibition zone, Bacillus Cereus, C",Bacillus cereus; [4],39 mm

# Source: patent US11970460B1, “4-(4,5-bis(4-bromophenyl)-2-phenyl-1H-imidazol-1-yl)benzoic acid as an antimicrobial compound” (KING FAISAL UNIVERSITY, priority 2023, dated 2024)
